#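 How tested: cells in 96-well plates exposed to compound for 48 hours at five concentrations. GI50: concentration for 50% inhibition of growth.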 Active and inactive are the calls of the source. Cut-off read from the data, not from the text of the source: active = GI50 up to about 1.1 µM and inactive = higher.
# What was measured:
# Assay in all cases: NCI tumour cell line growth inhibition, 48 h
# PC-3 = test system: PC-3
# NCI-H23 = test system: NCI-H23
# ACHN = test system: ACHN
# HL-60 = test system: HL-60
# SW-620 = test system: SW-620
# SNB-19 = test system: SNB-19
# TK-10 = test system: TK-10
# SR = test system: SR
# EKVX = test system: EKVX
# BT-549 = test system: BT-549
# MDA-MB-435 = test system: MDA-MB-435
# A549 = test system: A549
# DU-145 = test system: DU-145
# HCC 2998 = test system: HCC 2998
# MDA-MB-231 = test system: MDA-MB-231
# UO-31 = test system: UO-31
Structure (SMILES),GI50 (PC-3),GI50 (NCI-H23),GI50 (ACHN),GI50 (HL-60),GI50 (SW-620),GI50 (SNB-19),GI50 (TK-10),GI50 (SR),GI50 (EKVX),GI50 (BT-549),GI50 (MDA-MB-435),GI50 (A549),GI50 (DU-145),GI50 (HCC 2998),GI50 (MDA-MB-231),GI50 (UO-31)
Cc1ccnc2nc(-c3cccc(Cl)c3)cc(O)c12,0.0206 µM (active),0.826 µM (active),1.34 µM (inactive),0.0115 µM (active),0.0524 µM (active),0.132 µM (active),> 100 µM (inactive),0.0325 µM (active),> 100 µM (inactive),1.65 µM (inactive),< 0.01 µM (active),0.0748 µM (active),0.495 µM (active),0.224 µM (active),0.108 µM (active),–
Cn1c(=O)cc(NCCc2ccccc2)[nH]c1=O,13 µM (inactive),91.8 µM (inactive),39.3 µM (inactive),> 10 µM (inactive),27.5 µM (inactive),77.8 µM (inactive),> 100 µM (inactive),9.1 µM (inactive),54.7 µM (inactive),47.8 µM (inactive),5.46 µM (inactive),38.8 µM (inactive),52 µM (inactive),27.8 µM (inactive),12.3 µM (inactive),34.1 µM (inactive)
OCC1CCCC(n2cnc3c(S)ncnc32)O1 (configuration not stated),> 100 µM (inactive),> 100 µM (inactive),> 100 µM (inactive),0.0252 µM (active),> 100 µM (inactive),> 100 µM (inactive),> 100 µM (inactive),> 100 µM (inactive),> 100 µM (inactive),> 100 µM (inactive),> 100 µM (inactive),> 100 µM (inactive),> 100 µM (inactive),> 100 µM (inactive),> 100 µM (inactive),> 100 µM (inactive)
Cc1nc(N)nc(S)c1CCCNc1ccccc1,61.2 µM (inactive),88.5 µM (inactive),90.2 µM (inactive),50 µM (inactive),> 100 µM (inactive),89.7 µM (inactive),63.8 µM (inactive),3.6 µM (inactive),60 µM (inactive),70 µM (inactive),74 µM (inactive),52.2 µM (inactive),76.2 µM (inactive),–,> 100 µM (inactive),59.3 µM (inactive)
COc1c(C)c(C/C=C(\C)CCCC(C)CCCC(C)CCCC(C)C)c(OC)c2ccccc12 (configuration not stated),> 100 µM (inactive),> 100 µM (inactive),> 100 µM (inactive),–,> 100 µM (inactive),> 100 µM (inactive),> 100 µM (inactive),> 100 µM (inactive),> 100 µM (inactive),> 100 µM (inactive),> 100 µM (inactive),> 100 µM (inactive),> 100 µM (inactive),> 100 µM (inactive),> 100 µM (inactive),> 100 µM (inactive)
Cc1ccc(S(=O)(=O)NC(=O)C2=C3SCCN3C(=O)N(S(=O)(=O)c3ccc(C)cc3)C2c2ccccc2)cc1 (configuration not stated),33.9 µM (inactive),40.6 µM (inactive),> 100 µM (inactive),43.2 µM (inactive),47.3 µM (inactive),34.8 µM (inactive),> 100 µM (inactive),31.4 µM (inactive),> 100 µM (inactive),> 100 µM (inactive),22.9 µM (inactive),> 100 µM (inactive),> 100 µM (inactive),12.2 µM (inactive),36.6 µM (inactive),> 100 µM (inactive)
O=C(NCC(O)COc1ccccc1)c1ccccc1O (configuration not stated),66.1 µM (inactive),> 100 µM (inactive),> 100 µM (inactive),–,> 100 µM (inactive),91 µM (inactive),> 100 µM (inactive),87.7 µM (inactive),> 100 µM (inactive),27.7 µM (inactive),> 100 µM (inactive),> 100 µM (inactive),> 100 µM (inactive),> 100 µM (inactive),> 100 µM (inactive),47.8 µM (inactive)
COc1ccc(-c2nc(-c3cnccn3)n(C3OC(CO)C(O)C(O)C3O)n2)cc1 (configuration not stated),> 100 µM (inactive),> 100 µM (inactive),–,> 100 µM (inactive),> 100 µM (inactive),> 100 µM (inactive),> 100 µM (inactive),> 100 µM (inactive),> 100 µM (inactive),> 100 µM (inactive),> 100 µM (inactive),> 100 µM (inactive),> 100 µM (inactive),> 100 µM (inactive),> 100 µM (inactive),> 100 µM (inactive)
O=[N+]([O-])C1CC/C(=N/O)c2nonc21 (configuration not stated),> 10 µM (inactive),> 10 µM (inactive),> 10 µM (inactive),> 10 µM (inactive),> 10 µM (inactive),> 10 µM (inactive),> 10 µM (inactive),> 10 µM (inactive),> 10 µM (inactive),> 10 µM (inactive),> 10 µM (inactive),> 10 µM (inactive),> 10 µM (inactive),> 10 µM (inactive),> 10 µM (inactive),> 10 µM (inactive)
c1ccc(/C(=N/Nc2cnccn2)c2ncccn2)cc1,> 100 µM (inactive),> 100 µM (inactive),40.7 µM (inactive),–,41.1 µM (inactive),> 100 µM (inactive),–,12.9 µM (inactive),18.2 µM (inactive),> 100 µM (inactive),> 100 µM (inactive),> 100 µM (inactive),90.2 µM (inactive),> 100 µM (inactive),68.2 µM (inactive),29 µM (inactive)
COc1ccc(-c2nnc(-c3ccncc3)o2)cc1,> 100 µM (inactive),> 100 µM (inactive),> 100 µM (inactive),> 100 µM (inactive),–,78.7 µM (inactive),> 100 µM (inactive),> 100 µM (inactive),> 100 µM (inactive),> 100 µM (inactive),> 100 µM (inactive),> 100 µM (inactive),> 100 µM (inactive),–,> 100 µM (inactive),> 100 µM (inactive)
CCCCn1c2c(n(CCCC)c1=S)-c1c(n(CCCC)c(=S)n1CCCC)SSc1c(n(CCCC)c(=S)n1CCCC)-c1c(n(CCCC)c(=S)n1CCCC)SSc1c(n(CCCC)c(=S)n1CCCC)-c1c(n(CCCC)c(=S)n1CCCC)SS2,2.04 µM (inactive),16.3 µM (inactive),2.36 µM (inactive),1.75 µM (inactive),1.69 µM (inactive),11.4 µM (inactive),> 30.2 µM (inactive),1.88 µM (inactive),5.37 µM (inactive),3.55 µM (inactive),11.3 µM (inactive),> 50 µM (inactive),29.8 µM (inactive),12.6 µM (inactive),2.24 µM (inactive),6.47 µM (inactive)
Cc1cc2c(cc1C)C(=O)C1(C2)Cc2c(ccc(C)c2C)C1=O (configuration not stated),> 100 µM (inactive),–,> 100 µM (inactive),> 100 µM (inactive),> 100 µM (inactive),> 100 µM (inactive),> 100 µM (inactive),> 100 µM (inactive),> 100 µM (inactive),> 100 µM (inactive),> 100 µM (inactive),73.6 µM (inactive),> 100 µM (inactive),> 100 µM (inactive),> 100 µM (inactive),> 100 µM (inactive)
C=C(C)[C@@H](C(=O)OC)N1C(=O)c2ccccc2C1=O,> 100 µM (inactive),> 100 µM (inactive),> 100 µM (inactive),> 100 µM (inactive),> 100 µM (inactive),> 100 µM (inactive),> 100 µM (inactive),> 100 µM (inactive),> 100 µM (inactive),> 100 µM (inactive),> 100 µM (inactive),> 100 µM (inactive),> 100 µM (inactive),> 100 µM (inactive),> 100 µM (inactive),> 100 µM (inactive)
COc1cc2c(c(OC3OC(CO)C(O)C(O)C3O)c1)C(=O)CC(c1ccc(O)cc1)O2 (configuration not stated),> 100 µM (inactive),> 100 µM (inactive),> 100 µM (inactive),> 100 µM (inactive),> 100 µM (inactive),> 100 µM (inactive),> 100 µM (inactive),> 100 µM (inactive),> 100 µM (inactive),> 100 µM (inactive),> 100 µM (inactive),> 100 µM (inactive),> 100 µM (inactive),> 100 µM (inactive),> 100 µM (inactive),> 100 µM (inactive)
CC1(C)C2CC(=O)C1(C)C(OCc1ccccc1)C2 (configuration not stated),34.4 µM (inactive),27.2 µM (inactive),> 100 µM (inactive),24.4 µM (inactive),29.6 µM (inactive),88.3 µM (inactive),23.4 µM (inactive),25.1 µM (inactive),> 100 µM (inactive),54.6 µM (inactive),47 µM (inactive),74.3 µM (inactive),> 100 µM (inactive),59.8 µM (inactive),44 µM (inactive),62.7 µM (inactive)
Cc1ccc(NC(=O)c2ccc(OP(=O)(O)Nc3ccc(C)cc3)cc2)cc1,> 100 µM (inactive),> 100 µM (inactive),> 100 µM (inactive),> 100 µM (inactive),> 100 µM (inactive),> 100 µM (inactive),> 100 µM (inactive),> 100 µM (inactive),> 100 µM (inactive),> 100 µM (inactive),> 100 µM (inactive),> 100 µM (inactive),> 100 µM (inactive),> 100 µM (inactive),> 100 µM (inactive),66.8 µM (inactive)
NC(=O)CC[C@H]1C(=O)N=C(N)N1C(=O)OCc1ccccc1,> 100 µM (inactive),> 100 µM (inactive),> 100 µM (inactive),> 100 µM (inactive),> 100 µM (inactive),> 100 µM (inactive),> 100 µM (inactive),> 100 µM (inactive),> 100 µM (inactive),> 100 µM (inactive),> 100 µM (inactive),–,> 100 µM (inactive),> 100 µM (inactive),> 100 µM (inactive),> 100 µM (inactive)

# Source: ChEMBL document CHEMBL1201862, “PubChem BioAssay data set” (2004)
